The values below come from US20230346661A1, “Anhydrous Azelaic Acid Topical Formulations” (Baek Clinical Inc., priority 2020, published 2023).

Data set [1] is described as follows: Solubility of optional additional components in non-aqueous solvents. The format is physicochemical. An excerpt:
Additional ingredients were chosen for their compatibility with (e.g., miscibility in) 1,3 propanediol, 1,2 propanediol, and 1,3 butanediol.

The subject of the next data set is erythema (skin redness). The conditions noted are these: concentrations of 0.2%; cited from earlier work.
Data set [2] has as its system transepidermal water loss. To be noted: in vivo; cited from earlier work.
A short description of data set [3]: Ability of polyol solvents to solubilize azelaic acid. The format is physicochemical. Here is the method:
A series of experiments were performed to assess and optimize the components of the subject formulations.

The nature of data set [4]: Maximum concentration of azelaic acid solubilized with heat in a given solvent without precipitation upon cooling. The conditions noted are these: in dimethyl isosorbide, relative to the approximately 10 to 12% of the diols. The format is physicochemical. An excerpt: In order to determine a desirable ratio of azelaic acid to urea for certain compositions of this disclosure, the maximum concentration for azelaic acid that can be solubilized is first determined, with heat exposure, in a given solvent without precipitation upon cooling.

The conditions of data set [5]: cited from earlier work.
The next data set deals with melasma. The conditions noted are these: cited from earlier work.

Take `COc1cc(CC(C(C)=O)C(C)=O)ccc1O` [Acetyl zingerone]: the solubility result in data set [1] (at 0.5-1% in 1,3 propanediol, 1,2 propanediol and 1,3 butanediol) was “readily soluble”.

Regarding madecassoside, the “ability to reduce erythema (skin redness)” value with erythema (skin redness) is given as “desirable ability to reduce erythema”. Also, the solubility entry in data set [1] (at a concentration of 0.2% in 1,3 propanediol, 1,2 propanediol and 1,3 butanediol) is listed as “soluble”.

In the case of `CC(C)(CO)[C@@H](O)C(=O)NCCCO` [Panthenol], the “concentration at which inhibition of transepidermal water loss is apparent” value in data set [2] was at least 1%.

Turning to `O=C(O)CCCCCCCC(=O)O` [azelaic acid], the “ability to solubilize azelaic acid” value in data set [3] (solvent 1,2-hexanediol used alone) is recorded as “moderate”; in data set [3] (solvent 1,2-propanediol (propylene glycol)), “moderate”; in data set [3] (solvent 1,3-butanediol (butylene glycol)) it was “moderate”; in data set [3] (solvent 1,3-propanediol), “moderate”; in data set [3] (solvent 1,5-pentanediol (pentylene glycol)) it was “moderate”; in data set [3] (solvent dimethyl isosorbide) it was “very limited”. Moreover, in data set [3] (solvents glycerin and diglycerin), the “ability to solubilize azelaic acid” value was “moderate and low”. Moreover, the “maximum concentration for azelaic acid that can be solubilized” value in data set [4] was “significantly lower”. For the same compound, the “solubility in cosmetic oils” value in data set [5] (cosmetic oils) is recorded as “little or no solubility”. For the same compound, the “stability of azelaic acid in alcohol” value in data set [5] (ethyl alcohol, normal temperatures) is “unstable”. For the same compound, the “maximum azelaic acid in a water and azelaic acid solution” value in data set [5] (water) was “about 0.24 % by weight (w/w)”. Moreover, in the data set with melasma (20% azelaic acid compared to 4% hydroquinone), the “treatment differences in overall rating, reduction in lesion size and pigmentary intensity” value is listed as “no significant treatment differences”. The “allergic sensitization or exogenous ochronosis” value in the data set with melasma (20% azelaic acid) was “no allergic sensitization or exogenous ochronosis observed”. Also, the “good or excellent results in lightening melasma” value in the data set on melasma (20% azelaic acid) is given as 65%.

Regarding `CC1(C)[C@@H](O[C@H]2O[C@H](C(=O)O)[C@@H](O)[C@H](O)[C@H]2O[C@@H]2O[C@H](C(=O)O)[C@@H](O)[C@H](O)[C@H]2O)CC[C@]2(C)[C@H]3C(=O)C=C4[C@@H]5C[C@@](C)(C(=O)O)CC[C@]5(C)CC[C@@]4(C)[C@]3(C)CC[C@@H]12` [glycyrrhizic acid], in data set [1] (in 1,3-propanediol), the solubility entry is on record as “shows solubility”.
